Experimental data as given in article PMC10353390, “Biological and Structural Analyses of New Potent Allosteric Inhibitors of HIV-1 Integrase” (Antimicrobial Agents and Chemotherapy, 2023).

Experiments:
[1] = test system: VSV-G-pseudotyped NL4-3Δenv-luc; test: microbe, parasite or virus in culture; format: cell-based, HIV-1
NL4-3 HIV-1 strain = test: Multiple-round infection assay in MT4 cells, NL4-3; format: cell-based; details: MT4 cells
[2] = test system: primary HIV-1 isolates with polymorphisms at IN positions 124 and 125; test: Multiple-round infection of MT4 cells with primary HIV-1 isolates polymorphic at IN positions 124 and 125; format: cell-based; details: primary isolate
Experimental: Next, we evaluated the potency of the BDM-2 series of INLAIs against several primary HIV-1 isolates with polymorphisms at IN positions 124 and 125.
(§1) MT4 cells growing exponentially at the density of 10^6/mL were infected with HIV-1 strain NL4-3 at a multiplicity of infection (MOI) of 0.001 for 2 h in the presence of different concentrations of compounds, and the CellTiter-Glo luminescent reagent (Promega) was used to quantify cell viability as described previously ([12]).

HIV-1 IN = biological target: T1, HIV-1 IN (Human immunodeficiency virus type 1 group M subtype B, UniProt P12497); test: HTRF IN multimerization assay; format: biochemical; details: mean ± SD
T1 construct: made in house
Source text: A key property of INLAIs is the ability to promote HIV-1 IN homo-multimerization ([39][–][42]). […] The maximal signal (plateau) in our IN aggregation assay corresponds to the highest HTRF signal increase under saturating INLAI concentration, relative to baseline level. Thus, MUT916, MUT884, MUT871, and MUT872 increased HIV-1 IN aggregation 3.7 to 4.4-fold, while BDM-2, BI-224436, and S-I-82 did so 5 to 6-fold (Table 1).

HXB2 HIV-1 strain = test: Multiple-round infection assay in MT4 cells, HXB2; format: cell-based; details: Human immunodeficiency virus 1, HXB2; multiple-round infection, MT4 cells; mean ± SD, n > 5; read-out: EC50 HXB2
Experimental: Antiretroviral activity of BDM-2 and its analogs was first evaluated in lymphoblastoid cell line MT4 and in primary human T lymphocytes using NL4-3 and HXB2 laboratory HIV-1 isolates.
as §1

[3] = Cytotoxicity assay in MT4 cells; format: cell-based; details: human, MT4 cells (proliferating human T-cell line), CellTiter-Glo
Source text: Growth inhibition was monitored in a proliferating human T-cell line (MT4) with different concentrations of compounds, using the CellTiter-Glo luminescent reagent (Promega), as previously described ([12]).

[4] = biological target: CCD of HIV-1 IN and IBD of LEDGF/p75 (Human immunodeficiency virus type 1 group M subtype B, UniProt P12497); test: biochemical
Experimental: (§2) The INLAIs were tested for the ability to inhibit the HIV-1 IN-LEDGF/p75 interaction in a homogeneous time-resolved fluorescence (HTRF) assay. Our assays used either full-length IN and LEDGF/p75 proteins or their respective minimally sufficient interaction domains: the CCD of HIV-1 IN and the IBD of LEDGF/p75 (Table 1).
(§3) HTRF-based CCD-IBD interaction, IN-LEDGF/p75 interaction and IN multimerization assays were performed as described previously ([12]).

[5] = test system: HIV-1 strains resistant to INSTIs, NRTIs, NNRTIs or PIs; format: cell-based
Experimental: To this end, we used both recombinant viruses constructed by introducing described drug resistance mutations into NL4-3 HIV-1 clone as well as drug-resistant clinical HIV-1 isolates.
as §1

[6] = biological target: HIV-1 IN-LEDGF/p75 interaction (Human immunodeficiency virus type 1 group M subtype B, UniProt P12497); test: biochemical
Experimental: as §2, §3

[7] = test system: NL4-3 HIV-1 with INLAI-selected IN single point mutations; format: cell-based
[8] = test system: recombinant NL4-3 viruses with polymorphisms at IN positions 124 and 125; test: Multiple-round infection of MT4 cells with recombinant NL4-3 viruses polymorphic at IN positions 124 and 125; format: cell-based, HIV-1
Source text: Located on the HIV-1 IN CCD dimerization interface, the principal INLAI binding pocket overlaps with a hot spot of amino acid sequence polymorphism involving IN residues 124 and 125 ([16]). To test if the new INLAIs maintained antiviral activity against major polymorphisms, we introduced all major combinations of residues found in circulating HIV-1 strains at positions 124 and 125 into NL4-3 HIV-1 molecular clone. In total, we evaluated 15 such combinations that collectively covered 98% of all HIV-1 clade polymorphisms involving these positions ([48]). To gauge effects on the antiviral activity, we calculated the EC50 fold change (FC) relative to wild type NL4-3 HIV-1 strain that features Thr124 and Thr125 (TT; specific polymorphisms are referred to by a single letter amino acid code).
as §1

[9] = INSTI-resistant, NL4-3 background

Cc1ccc(C2CC2)c(-c2ccc3c(c2)CCCO3)c1[C@H](OC1CC1)C(=O)O [MUT872]
EC50 ratio (single/multiple-round infection) [1]: 196 | EC50 ([1]; Human immunodeficiency virus 1, NL43, MT4, read-out: EC50 in single-round infection): 8800 ± 300 nM | EC90 (NL4-3 HIV-1 strain; Human immunodeficiency virus 1, NL43, multiple-round infection, from dose response curves, read-out: EC90 NL4-3): 61 ± 19 nM | EC50 (NL4-3 HIV-1 strain; Human immunodeficiency virus 1, NL43, multiple-round infection, mean ± SD, n > 5, read-out: EC50 NL4-3): 45 ± 12 nM | Selectivity index CC50/EC50 NL4-3 (NL4-3 HIV-1 strain): 3,088 | Fold change in EC50 relative to parental NL4-3, CAM2BBY (CRF02) ([2]; IN 124/125 AA): 1 | Fold change in EC50 relative to parental NL4-3, E0836M4 (D) ([2]; IN 124/125 AA): 1 | Fold change in EC50 relative to parental NL4-3, KER2008 (A) ([2]; IN 124/125 AA): 1 | Fold change in EC50 relative to parental NL4-3, NP1525 (CRF01) ([2]; IN 124/125 AA): 1 | Fold change in EC50 relative to parental NL4-3, NP1695 (CRF02) ([2]; IN 124/125 AA): 1 | Fold change in EC50 relative to parental NL4-3, TZA125 (C) ([2]; IN 124/125 AA): 0.4 | Fold change in EC50 relative to parental NL4-3, KSM4030 (A) ([2]; IN 124/125 GA): 2 | Fold change in EC50 relative to parental NL4-3, vGA (C) ([2]; IN 124/125 GA): 4 | Fold change in EC50 relative to parental NL4-3, 99ET14 (C) ([2]; IN 124/125 NA): 1 | Fold change in EC50 relative to parental NL4-3, NP1538 (B) ([2]; IN 124/125 NA): 2 | Fold change in EC50 relative to parental NL4-3, vNA_1 (B) ([2]; IN 124/125 NA): 1 | Fold change in EC50 relative to parental NL4-3, vNA_2 (CRF02) ([2]; IN 124/125 NA): 2 | Fold change in EC50 relative to parental NL4-3, vNV (B) ([2]; IN 124/125 NV): 1 | Fold change in EC50 relative to parental NL4-3, vSA_1 (B) ([2]; IN 124/125 SA): 2 | Fold change in EC50 relative to parental NL4-3, vSA_2 (CRF02) ([2]; IN 124/125 SA): 2 | Fold change in EC50 relative to parental NL4-3, vTA_1 (B) ([2]; IN 124/125 TA): 2 | Fold change in EC50 relative to parental NL4-3, vTA_2 (CRF02) ([2]; IN 124/125 TA): 2 | AC50 (HIV-1 IN; concentration for 50% maximum activation of multimerization): 43 ± 11 nM | IN multimerization Plateau (HIV-1 IN; maximum multimerization reached versus baseline): 440 ± 48% | EC50 (HXB2 HIV-1 strain): 18 ± 1 nM | CC50 [3]: 139000 ± 29000 nM | IC50 [4]: 420 ± 70 nM | Fold change in EC50 relative to NL4-3, E92Q [5, 9]: 1 | Fold change in EC50 relative to NL4-3, G140S [5, 9]: 1 | Fold change in EC50 relative to NL4-3, G140S/Q148H [5, 9]: 1 | Fold change in EC50 relative to NL4-3, N155H [5, 9]: 1 | Fold change in EC50 relative to NL4-3, Q148H [5, 9]: 1 | Fold change in EC50 relative to NL4-3, Y143R [5, 9]: 0.5 | Fold change in EC50 relative to NL4-3, NLAY351717 ([5]; NRTI-resistant clone): 1 | Fold change in EC50 relative to NL4-3, NLAY351753 ([5]; NRTI/NNRTI-resistant clone): 1 | Fold change in EC50 relative to NL4-3, K103N/Y181C ([5]; NRTI/NNRTIs group, NL4-3 background): 1 | Fold change in EC50 relative to NL4-3, ARP-4595 ([5]; PI-resistant virus): 1 | Fold change in EC50 relative to NL4-3, ARP-4596 ([5]; PI-resistant virus): 1 | Fold change in EC50 relative to NL4-3, ARP-11801 ([5]; PI-resistant virus): 2 | Fold change in EC50 relative to NL4-3, ARP-11803 ([5]; PI-resistant virus): 1 | Fold change in EC50 relative to NL4-3, ARP-11807 ([5]; PI-resistant virus): 1 | Fold change in EC50 relative to NL4-3, ARP-11808 ([5]; PI-resistant virus): 2 | IC50 [6]: 170 ± 20 nM | EC50 fold change compared to wild type NL4-3, A128T [7]: 7 | EC50 fold change compared to wild type NL4-3, H171Q [7]: 1 | EC50 fold change compared to wild type NL4-3, N222K [7]: 2 | EC50 fold change compared to wild type NL4-3, T174I [7]: 15 | EC50 fold change compared to wild type NL4-3, Y99H [7]: 2 | Fold change in EC50 relative to parental NL4-3, AA ([8]; recombinant NL4-3, IN 124/125 AA): 1 | Fold change in EC50 relative to parental NL4-3, AM ([8]; recombinant NL4-3, IN 124/125 AM): 0.3 | Fold change in EC50 relative to parental NL4-3, AT ([8]; recombinant NL4-3, IN 124/125 AT): 1 | Fold change in EC50 relative to parental NL4-3, AV ([8]; recombinant NL4-3, IN 124/125 AV): 0.5 | Fold change in EC50 relative to parental NL4-3, GA ([8]; recombinant NL4-3, IN 124/125 GA): 2 | Fold change in EC50 relative to parental NL4-3, GT ([8]; recombinant NL4-3, IN 124/125 GT): 2 | Fold change in EC50 relative to parental NL4-3, NA ([8]; recombinant NL4-3, IN 124/125 NA): 1 | Fold change in EC50 relative to parental NL4-3, NT ([8]; recombinant NL4-3, IN 124/125 NT): 1 | Fold change in EC50 relative to parental NL4-3, NV ([8]; recombinant NL4-3, IN 124/125 NV): 1 | Fold change in EC50 relative to parental NL4-3, SA ([8]; recombinant NL4-3, IN 124/125 SA): 1 | Fold change in EC50 relative to parental NL4-3, ST ([8]; recombinant NL4-3, IN 124/125 ST): 1 | Fold change in EC50 relative to parental NL4-3, TA ([8]; recombinant NL4-3, IN 124/125 TA): 1 | Fold change in EC50 relative to parental NL4-3, TM ([8]; recombinant NL4-3, IN 124/125 TM): 0.2 | Fold change in EC50 relative to parental NL4-3, TV ([8]; recombinant NL4-3, IN 124/125 TV): 1
